Results: patent US20230086703A1, “N-(4-(5-chloropyridin-3-yl)phenyl)-2-(2-(cyclopropanesulfonamido)pyrimidin-4-yl) butanamide derivatives and related compounds as human CTPS1 inhibitors for the treatment of proliferative diseases” (Step Pharma S.A.S., priority 2019, published 2023)

Molecular target: T1, human CTPS1 (Homo sapiens, UniProt P17812)
T1 construct: FLAG (with GG linker); His8 (with GG linker); purchased Proteros biostructures GmbH
T1 sequence (P17812 1-591): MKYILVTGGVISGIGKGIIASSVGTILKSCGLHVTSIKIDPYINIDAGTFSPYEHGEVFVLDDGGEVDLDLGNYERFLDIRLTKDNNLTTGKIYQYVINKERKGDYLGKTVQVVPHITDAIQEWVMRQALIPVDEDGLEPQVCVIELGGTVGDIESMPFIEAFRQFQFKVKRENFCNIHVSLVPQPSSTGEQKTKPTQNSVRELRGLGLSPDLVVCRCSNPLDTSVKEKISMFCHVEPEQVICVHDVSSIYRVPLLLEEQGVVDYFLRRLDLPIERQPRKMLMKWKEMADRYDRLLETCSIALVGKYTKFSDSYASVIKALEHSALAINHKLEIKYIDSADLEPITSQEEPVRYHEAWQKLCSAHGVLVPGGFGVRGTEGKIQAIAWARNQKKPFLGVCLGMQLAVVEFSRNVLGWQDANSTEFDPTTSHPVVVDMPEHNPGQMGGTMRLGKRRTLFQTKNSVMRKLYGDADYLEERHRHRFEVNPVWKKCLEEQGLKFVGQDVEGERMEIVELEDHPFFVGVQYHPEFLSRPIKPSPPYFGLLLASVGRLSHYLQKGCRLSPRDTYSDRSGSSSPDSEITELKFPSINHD
Assay: RapidFire/MS-based enzyme selectivity assay (human CTPS1 versus CTPS2), CTPS1 isoform
Type: biochemical
In short: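 Full-length C-terminal FLAG-His-tagged CTPS1 (1-591) was preincubated 10 min at 25 °C with compound in HEPES pH 8.0 buffer with MgCl2, KCl, DTT and Tween-20. Reactions were started with a 2× mix of ATP 0.3 mM, UTP 0.2 mM, GTP 0.07 mM and L-glutamine 0.1 mM, and run in the linear phase at 25 °C. IC50 comes from the RapidFire-MS ratio of CTP to 13C9-15N3-CTP.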

[1] = RapidFire/MS IC50 values of CTPS1 and CTPS2, Table 15
[2] = Table 16, human CTPS1 over human CTPS2, RapidFire/MS IC50 values

SMILES	Selectivity (fold selectivity between CTPS1 and CTPS2) [1]	Selectivity (fold selectivity between CTPS1 and CTPS2) [2]	other results
CCOc1cncc(-c2ccc(NC(=O)C(C)(C)c3ccnc(NS(C)(=O)=O)n3)nc2)n1 [P76, N-(5-(6-ethoxypyrazin-2-yl)pyridin-2-yl)-2-methyl-2-(2-(methylsulfonamido)pyrimidin-4-yl)propanamide]	++ (>30-60 fold (++))		
CCC(C(=O)Nc1ccc(-c2cncc(C(F)(F)F)n2)cc1)c1ccnc(NS(=O)(=O)C2CC2)n1 (stereo not drawn) [P103, 2-(2-(cyclopropanesulfonamido)pyrimidin-4-yl)-N-(4-(6-(trifluoromethyl)pyrazin-2-yl)phenyl)butanamide]	+ (2-30 fold (+))		
CCOc1cncc(-c2ccc(NC(=O)C3(c4ccnc(NS(=O)(=O)C5CC5)n4)CCN(S(C)(=O)=O)CC3)nc2)n1 [P251]			Selectivity (fold selectivity between CTPS1 and CTPS2) (RapidFire/MS IC50 values of CTPS1 and CTPS2, Table 17): +++ (>60 fold (+++))
Cc1sc(NS(=O)(=O)C2CC2)nc1C(C)(C)NC(=O)c1ccc(-c2cncc(C(F)(F)F)n2)cc1 [R78, N-(2-(2-(cyclopropanesulfon-amido)-5-methylthiazol-4-yl)propan-2-yl)-4-(6-(trifluoromethyl)pyrazin-2-yl)benzamide]		++ (>30-60 fold (++))	
CCOc1cncc(-c2cnc(C(=O)NC(C)(C)c3csc(NS(=O)(=O)C4CC4)n3)c(F)c2)n1 [R23, N-(2-(2-(cyclopropanesulfon-amido)thiazol-4-yl)propan-2-yl)-5-(6-ethoxypyrazin-2-yl)-3-fluoropicolinamide]		++ (>30-60 fold (++))	
CCOc1cncc(-c2ccc(NC(=O)C(F)(CC)c3ccnc(NS(=O)(=O)C4CC4)n3)nc2)n1 (single isomer, unassigned) [P114, 2-(2-(Cyclopropanesulfonamido)pyrimidin-4-yl)-N-(5-(6-ethoxypyrazin-2-yl)pyridin-2-yl)-2-fluorobutanamide]	+++ (>60 fold (+++))		
CCC(NC(=O)c1ccc(-c2cncc(F)c2)cc1)c1csc(NS(=O)(=O)C2CC2)n1 (single isomer, unassigned) [R69, N-(1-(2-(cyclopropanesulfon-amido)thiazol-4-yl)propyl)-4-(5-fluoropyridin-3-yl)benzamide]		+++ (>60 fold (+++))	
Cc1cc(-c2cncc(C(F)(F)F)n2)ccc1C(=O)NC(C)(C)c1nc(NS(=O)(=O)C2CC2)sc1C [R76, N-(2-(2-(cyclopropanesulfon-amido)-5-methylthiazol-4-yl)propan-2-yl)-2-methyl-4-(6-(trifluoromethyl)pyrazin-2-yl)benzamide]		+ (2-30 fold (+))	
CCOc1cncc(-c2ccc(NC(=O)C(F)(CC)c3cncc(NS(=O)(=O)C4CC4)n3)nc2)n1 (single isomer, unassigned) [P206, 2-(6-(2-cyclopropanesulfonamido)pyrazin-2-yl)-N-(5-(6-ethoxypyrazin-2-yl)pyridin-2-yl)-2-fluorobutanamide]	+++ (>60 fold (+++))		
CCC(C(=O)Nc1ccc(-c2cncc(C(F)(F)F)n2)cn1)c1ccnc(NS(=O)(=O)C2CC2)n1 (stereo not drawn) [P87, 2-(2-(cyclopropanesulfonamido)pyrimidin-4-yl)-N-(5-(6-(trifluoromethyl)pyrazin-2-yl)pyridin-2-yl)butanamide]	++ (>30-60 fold (++))		
CCOc1cncc(-c2ccc(C(=O)NC(C)c3csc(NS(=O)(=O)C4CC4)n3)c(F)c2)n1 (stereo not drawn) [R91, N-(1-(2-(cyclopropanesulfon-amido)thiazol-4-yl)ethyl)-4-(6-ethoxypyrazin-2-yl)-2-fluorobenzamide]		+++ (>60 fold (+++))	
CCOc1cncc(-c2ccc(C(=O)NC(CC)c3csc(NS(=O)(=O)C4CC4)n3)c(F)c2)n1 (racemic) [R62, N-(1-(2-(cyclopropanesulfonamido)thiazol-4-yl)propyl)-4-(6-ethoxypyrazin-2-yl)-2-fluorobenzamide]		+++ (>60 fold (+++))	
